Source: patent US6531117B2, “Aqueous dispersion of water-insoluble organic UV filter substances” (BASF Aktiengesellschaft, priority 2000, dated 2003)

Assay: UV absorption (absorbance coefficient)
Format: physicochemical
Details: 314 nm
Text: Uvinul® T150 is notable for good UV absorption properties and an extremely high absorbance coefficient of >1500 and 314 nm.

CCCCC(CC)COC(=O)c1ccc(Nc2nc(Nc3ccc(C(=O)OCC(CC)CCCC)cc3)nc(Nc3ccc(C(=O)OCC(CC)CCCC)cc3)n2)cc1 (stereo not shown) [Uvinul® T150, 2,4,6-trianilino-p-(carbo-2′-ethylhexyl-1′-oxy)-1,3,5-triazine]
absorbance coefficient: > 1500
